The numbers were not newly measured in patent US20190015445A1, “INJECTION […] DIOXIDE AND METHOD FOR MAKING SAME” (priority 2016, published 2019), which cites them from elsewhere.

Molecules are shown by their SMILES. Like-named read-outs stand apart in the source and are kept apart here.

As for `[O][Cl+][O-]` [chlorine dioxide], the “solubility of chlorine dioxide” value by setting is: (at 20° C., aqueous solution) “about 2.9 g/L”; (at room temperature) 2900 µg/mL.
